We go through two compounds from patent publication US7045147B1, “Controlled release peroral compositions of levosimendan” (Orion Corporation, priority 1998, dated 2006).

The conditions of data set [1]: cited from earlier work.
The nature of data set [2]: Steady-state clinical study: plasma levels of levosimendan and metabolite (II) after 7 days levosimendan administration. It is filed as in vivo. The following applies: human, po, 1 mg levosimendan orally three times a day for 7 days, healthy volunteers, formulation as Formulation 3 except 1 mg levosimendan and Avicel PH-200 51.0 mg, N 14, read-out: Mean plasma level of levosimendan (day 7). How it is done: The steady-state plasma level for metabolite (II) can be measured for any composition by administering the composition of levosimendan to a volunteer or group of volunteers once or several times a day for several days until a steady state level of (II) is reached. The plasma levels of the active metabolite (II) can then be measured according to the procedure described in detail in Example 2.
The active metabolite (II) is added in 20 μl of phosphate buffer, pH 7.2 to 0.5 ml of analyte-free plasma. The amounts of analyte added are 0.100, 0.250, 0.500, 1.00, 2.50, 3.75, 5.00, 7.50 and 12.5 ng. After being vortexed for 20 seconds and left standing for 10 minutes, the 2500 pg of internal standard (R)-N-[4-(1,4,5,6-tetrahydro-4-ethyl-6-oxo-3-pyridazinyl)phenyl]acetamide is added in 20 μl of phosphate buffer, pH 7.2. The mixture is vortexed for 1 minute and left standing for 15 minutes. The calibration samples are alkalised with 50 μl of 0.1 M sodium hydroxide and vortexed for 20 seconds. […]
Determinations are carried out by using the selected reaction monitoring technique. […] The selected reaction monitoring chromatograms are recorded using a PE Sciex API 300 Data System.
Peak area ratios of analyte and its internal standard are plotted against concentrations. […] The limit of quantitation is 0.200 ng/ml. […]

Data set [3] can be described thus: Pharmacokinetics of levosimendan and its active metabolite (elimination half-life, absorption). It is filed as in vivo, human. The following applies: active first-pass metabolite of levosimendan. From the text:
The hemodynamic effects of levosimendan in man are described in Sundberg, S. et al., Am. J. Cardiol., 1995; 75: 1061-1066. Pharmacokinetics of levosimendan in man after i.v. and oral dosing is described in Sandell, E. -P. et al., J. Cardiovasc. Pharmacol., 26(Suppl. I), S57-S62, 1995. The use of levosimendan in the treatment of myocardial ischemia is described in WO 93/21921. Clinical studies have confirmed the beneficial effects of levosimendan in heart failure patients.
Firstly, the elimination half-life of levosimendan in human is short, about 1 h. Therefore, using conventional immediate release oral formulations levosimendan should be administered frequently during the day. Secondly, the gastrointestinal absorption of levosimendan is rapid. Therefore, using immediate release oral formulations high peak plasma concentrations of levosimendan are reached rapidly and abruptly, typically within 1 hour. High plasma concentrations of levosimendan tend to increase heart rate which is an undesired effect in heart failure patients.
The discovery of the active metabolite and its formation route makes it now possible to design controlled release preparations which show a reduced occurrence of undesired effects and which are well suited for the treatment of heart failure patients.

With `CC1CC(=O)NN=C1c1ccc(NN=C(C#N)C#N)cc1` (single isomer, unassigned; (-)) [Levosimendan, (−)-[[4-(1,4,5,6-tetrahydro-4-methyl-6-oxo-3-pyridazinyl)phenyl]hydrazono]propanedinitrile], in data set [1] (immediate release oral formulations), the “time to reach peak plasma concentrations” value was no more than 1 h. Further, the elimination half-life result in data set [1] (in human) is “about 1 h”. Further, the concentration at 1 h in data set [2] (1 h after the last dose (day 7)) came out at 15.4 ng/mL. Moreover, the concentration at 4 h in data set [2] (4 h after the last dose (day 7)) came out at 8.9 ng/mL.
For the compound `CC(=O)Nc1ccc(C2=NNC(=O)C[C@H]2C)cc1` [Metabolite (II), (R)-N-[4-(1,4,5,6-tetrahydro-4-methyl-6-oxo-3-pyridazinyl)phenyl]acetamide], the “elimination half-life compared with levosimendan” value in data set [3] was “substantially longer than that of levosimendan”.
